Test: mn = molality of the nth substance listed, in mol/kg
Conditions: Liquid, Vibrating tube method

[Ca+2].[Cl-].[Cl-] [calcium chloride] + CO
Conditions	mass density [kg/m3]
323.22 K, 14985 kPa, m1 = 2.393	964.38
323.22 K, 14994 kPa, m1 = 0.1082	789.4
323.22 K, 15000 kPa, m1 = 0.6588	838.59
323.22 K, 19991 kPa, m1 = 0.1082	794.09
323.22 K, 20010 kPa, m1 = 0.6588	842.96
323.22 K, 20014 kPa, m1 = 2.393	968.03
323.22 K, 24988 kPa, m1 = 0.6588	847.08
323.22 K, 24989 kPa, m1 = 0.1082	798.56
323.22 K, 25005 kPa, m1 = 2.393	971.52
323.22 K, 29988 kPa, m1 = 0.1082	802.81
323.22 K, 29988 kPa, m1 = 2.393	974.89
323.22 K, 30009 kPa, m1 = 0.6588	851.08
323.22 K, 34980 kPa, m1 = 2.393	978.17
323.22 K, 34991 kPa, m1 = 0.1082	806.89
323.22 K, 35005 kPa, m1 = 0.6588	854.89
323.22 K, 39995 kPa, m1 = 0.1082	810.79
323.22 K, 39995 kPa, m1 = 0.6588	858.56
323.22 K, 40017 kPa, m1 = 2.393	981.39
323.23 K, 226 kPa, m1 = 0.2853	790.12
323.23 K, 5015 kPa, m1 = 0.2853	795.26
323.23 K, 9993 kPa, m1 = 0.2853	800.3
323.23 K, 14993 kPa, m1 = 0.2853	805.07
323.23 K, 20003 kPa, m1 = 0.2853	809.62
323.23 K, 25013 kPa, m1 = 0.2853	813.96
323.23 K, 30015 kPa, m1 = 0.2853	818.08
323.23 K, 34988 kPa, m1 = 0.2853	821.99
323.23 K, 40005 kPa, m1 = 0.2853	825.78
348.23 K, 303 kPa, m1 = 2.393	928.79
348.23 K, 4983 kPa, m1 = 2.393	933.12
348.23 K, 9990 kPa, m1 = 2.393	937.54
348.23 K, 15005 kPa, m1 = 2.393	941.76
348.23 K, 20000 kPa, m1 = 2.393	945.79
348.23 K, 24993 kPa, m1 = 2.393	949.65
348.23 K, 29995 kPa, m1 = 2.393	953.38
348.23 K, 35000 kPa, m1 = 2.393	956.97
348.23 K, 39984 kPa, m1 = 2.393	960.44
348.24 K, 308 kPa, m1 = 0.1082	748.93
348.24 K, 321 kPa, m1 = 0.6588	799.27
348.24 K, 326 kPa, m1 = 0.2853	765.1
348.24 K, 4986 kPa, m1 = 0.6588	804.77
348.24 K, 5001 kPa, m1 = 0.2853	770.94
348.24 K, 5010 kPa, m1 = 0.1082	755.08
348.24 K, 9985 kPa, m1 = 0.1082	761.11
348.24 K, 9995 kPa, m1 = 0.6588	810.3
348.24 K, 9998 kPa, m1 = 0.2853	776.76

Source: the NIST ThermoML archive (doi:10.1016/j.jct.2005.05.003)
